Test [1] addresses angiotensin II receptor (rat uterine membranes). The test can be described thus: Angiotensin II binding assay (125I-angiotensin II, rat uterine membranes). The protocol: Other chemicals were obtained from Sigma Chemical Co.
Rat uterine membranes were prepared from fresh tissue. All procedures were carried out at 4° C. Uteri were stripped of fat and homogenized using a Polytron for 25 sec in 20 volumes of ice-cold Dulbecco's phosphate-buffered saline pH 7.5 (Gibso Labs) containing 5 mM EDTA. The homogenate was centrifuged at 1500× g for 20 min., and the supernatant was recentrifuged at 100,000× g for 60 min. The pellet was resuspended in buffer consisting of 2 mM EDTA and 50 mM Tris-HCl, pH 7.5 to a final protein concentration of 4 mg/ml.
The reaction was initiated by the addition of 50 μg of membrane protein and the mixture was incubated at 25° C. for 30 min. The incubation was terminated with ice-cold 50 mM Tris-HCl; pH 7.5 and the mixture was filtered to separate membrane-bound labelled peptide from the free ligand. The incubation tube and filter were washed with ice-cold buffer. Filters were assayed for radioactivity in a Micromedic gamma counter. Nonspecific binding was defined as binding in the presence of 10 μM of unlabelled AII. Specific binding was calculated as total binding minus nonspecific binding. Binding data was analyzed by a nonlinear least-squares curve fitting program.

For test [2], the system named is AII pressor response. The test can be described thus: In vivo AII pressor assay, intraduodenal administration. Details: species or system rat (male Sprague Dawley). To be noted: rat, @ 100 mg. How it is done:
(§1) Male Sprague Dawley rats weighing […] were anesthetized with Inactin (100 mg/kg), a catheter was inserted into the trachea and the carotid artery and the jugular vein were cannulated. Arterial pressure was measured from the carotid artery cannula and continuously recorded (Gould, Cleveland, OH). The jugular vein cannula was used for injections of angiotensin II (AII), mecamylamine, atropine and the test compound. The animal was allowed to equilibrate for 30 minutes. Mecamylamine (3 mg/kg, 0.3 mg/kg) and atropine (400 μg/kg, 0.3 ml/kg) were then given iv to produce ganglion blockage. These compounds were administered every 90 minutes throughout the screening procedure. Angiotensin II was given in bolus doses ([…] in saline with 0.5% bovine serum albumin, 0.1 ml/kg) every 10 minutes consecutively three times or until the increase in arterial pressure produced was within 3 mm Hg for two consecutive injections. […] AII injections were then given 1, 5, 10, 20, 30, 45, 60, 75, 90, and 120 minutes after administration of the test compound and the response of arterial pressure monitored. […]
Compounds were tested for absorption from the gastrointestinal tract following intraduodenal administration. […] The response to AII was tested at the same time points following administration of the test compound except that the 1 minute reading was eliminated. […]

In test [3] the target is T1, angiotensin II (AII) contraction of rabbit aortic rings (Oryctolagus cuniculus, UniProt P34976).
T1 construct: The thoracic aorta was removed, cleaned of adherent fat and connective tissue and then cut into 3-mm ring segments; from tissue; host or cells: rabbit thoracic aorta rings, endothelium removed
T1 sequence (P34976 1-359): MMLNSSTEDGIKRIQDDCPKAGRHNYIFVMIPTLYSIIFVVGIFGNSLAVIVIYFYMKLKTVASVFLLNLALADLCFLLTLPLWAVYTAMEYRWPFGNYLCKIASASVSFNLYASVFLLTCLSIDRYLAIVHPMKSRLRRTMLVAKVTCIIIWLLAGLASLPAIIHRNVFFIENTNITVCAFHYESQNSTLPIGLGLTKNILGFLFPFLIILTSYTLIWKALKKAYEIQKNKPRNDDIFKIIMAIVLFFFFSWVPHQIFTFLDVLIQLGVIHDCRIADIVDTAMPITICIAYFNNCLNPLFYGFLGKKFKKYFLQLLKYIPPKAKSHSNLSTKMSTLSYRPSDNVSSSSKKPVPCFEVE
The test can be described thus: In vitro myotropic screening assay for AII antagonists in rabbit aortic rings. Particulars: pA2 determined according to Schild. The format is cell-based. How it is done:
The compounds of the invention were tested for agonist and antagonist activity in rabbit aortic rings. Male New Zealand white rabbits (2-2.5 kg) were sacrificed using an overdose of pentobarbital and exsanguinated via the carotid arteries. The thoracic aorta was removed, cleaned of adherent fat and connective tissue and then cut into 3-mm ring segments. The endothelium was removed from the rings by gently sliding a rolled-up piece of filter paper into the vessel lumen. The rings were then mounted in a water-jacketed tissue bath, maintained at 37° C., between a moveable and a fixed stainless steel wire, with the moveable end attached to an FT03 Grass transducer coupled to a Model 7D Grass Polygraph for recording isometric force responses. […] The preparations were equilibrated for one hour before approximately one gram of passive tension was placed on the rings. For the agonist assay, the rings were exposed to increasing concentrations of the test compound, at 30 minute intervals, during which time the tissue was washed three times with 20 ml of fresh Krebs solution. For the measurement of antagonistic activity, paired rings from the same rabbits were used; one was exposed to increasing concentrations of AII (at 30 minute intervals), and a second ring was exposed to increasing concentrations of AII in the presence of the test compound which was added five minutes prior to the addition of AII. The concentration response curves for AII in the presence of the antagonist were evaluated in terms of the percent of the maximal contraction of the control ring exposed only to AII. pD2 values for AII were calculated from the AII concentration response curves while pA2s were determined according to Schild.

Test [4] deals with AII pressor response. The test is described as follows: In vivo pressor screening assay for AII antagonists, intravenous administration. Details: species or system rat (male Sprague Dawley). To be noted: rat, @ 30 mg. How it is done:
as §1, with “injections. The last two AII injections are averaged and are referred to as the control response to AII.” for “injections.”

The IC50 is the concentration at which inhibition is half-maximal. Low readings indicate greater potency, high ones weaker potency. What is called Kb is the equilibrium dissociation constant of an antagonist, usually derived from a functional assay.

Molecules are shown by their SMILES.

As to `CCCCc1nc2cc(C)c(=O)c(C)cc2n1Cc1ccc(-c2ccccc2C(=O)O)cc1` [Example 1, 4'-[[5,7-dimethyl-2-butyl-6(1H)-cycloheptimidazolon-1-yl]methyl]-[1,1'-biphenyl]-2-carboxylic acid], the IC50 was determined as 800 nM in test [1] (IC50, 125I-AII, rat uterine membranes, 25° C., 30 min) and 250 nM in test [1] (meaning not explained). Moreover, in the test with AII pressor response [2], the “Antagonism of the AII pressor response, maximal inhibition, ID” value is listed as 72%. This compound showed a Kb in test [3] of 1000 nM. The “Antagonism of the AII pressor response, maximal inhibition, I.V.” value in the test on AII pressor response [4] turned out to be 72%.

These data come from patent US5104891A, “Cycloheptimidazolone compounds as angiotensin II antagonists for control of hypertension” (G. D. Searle & Co., priority 1989, dated 1992).
